The values that follow come from US7608622B2, “Imidazo[4,5-b]pyrazinone inhibitors of protein kinases” (Janssen Pharmaceutica NV, priority 2004, dated 2009).

In the test the target is T1, Aurora-2 (Homo sapiens, UniProt O14965).
T1 construct: autophosphorylation of Aurora-2 (residues 125-391)
T1 sequence (O14965 125-391): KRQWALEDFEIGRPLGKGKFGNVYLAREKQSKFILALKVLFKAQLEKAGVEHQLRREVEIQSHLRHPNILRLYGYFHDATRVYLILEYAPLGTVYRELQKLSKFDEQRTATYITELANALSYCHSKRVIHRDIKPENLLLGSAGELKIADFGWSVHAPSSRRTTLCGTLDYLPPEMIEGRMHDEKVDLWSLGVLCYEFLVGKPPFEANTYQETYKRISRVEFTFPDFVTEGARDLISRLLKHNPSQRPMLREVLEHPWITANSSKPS
The test can be described thus: Aurora-2 Enzymatic Assay (ELISA-based). As to conditions: phosphorylated Aurora-2 (residues 125-391), Histone H3 Ser-10 phosphorylation, averages of three independent measurements; read-out: Aurora-2 IC50 Enzyme. The format is biochemical. On the procedure: In vitro assays were run to measure potency of Aurora-2 kinase inhibition by selected compounds of Formula I.
Aurora-2 Enzymatic Assay. An ELISA-based enzymatic assay was used to determine the compound potency for Aurora-2. In this assay, phosphorylated Aurora-2 (Pi-Aurora-2) catalyzes the ATP-dependent phosphorylation of Ser-10 of Histone H3. Pi-Aurora-2 was produced by autophosphorylation of Aurora-2 (residues 125-391) by 1 mM ATP in the presence of 10 mM MgCl2. The assay buffer used was 100 mM HEPES, pH 7.5, 1 mM DTT, 0.01% (v/v) Tween-20. Compounds were diluted in assay buffer containing 4% DMSO just prior to the assay. • Procedure. High-binding 96-well ELISA plates (Costar 9018) were coated overnight at 4° C. with 10 μg/ml human Histone H3 (Upstate) in PBS (100 μl/well). The following day, the plates were emptied and blocked with 1% BSA in PBS (150 μl/well) for 1 h at 37° C. At the end of the incubation, plates were washed 3 times with 0.01% Tween-20 in PBS (300 μl/well). 50 μl of compound were dispensed to each well followed by addition of 20 μl 10 mM MgCl2 and 20 μl 50 μM ATP (Sigma). The reaction was initiated by addition of 10 μl 30 nM Pi-Aurora-2. […] The reaction was quenched with 9 μl 50 mM EDTA and the plates were washed 5 times with 0.01% Tween-20 in PBS (300 μl/well). The phospho-histone H3 (Ser10) 6G3 monoclonal antibody (Cell Signaling) was then diluted 2,000-fold with 1% BSA in PBS, and was added to the plates (100 μl/well). Following 1 h incubation at 37° C., the plates were washed as described above. The HRP-conjugated secondary antibody (goat anti-mouse Ig(H+ L)-HRP human absorbed, Southern Biotechnology Associates, Inc.) was diluted 20,000-fold with 1% BSA in PBS and was added to the plates (100 μl/well). The plates were incubated for 1 h at 37° C. and then washed 5 times with 0.01% Tween-20 in PBS (300 μl/well). 100 μl/well TMB, SureBlue Reserve (KPL) were added. After ca. 5-6 min, each well received 100 μl 1 M HCl and the OD450 was measured with a SpectraMax Plus microplate reader (Molecular Devices). Under these conditions, absorbance values for positive and negative controls were ca. 0.1 and 1.7, respectively, and were used to define the 100% and 0% inhibition of the Aurora-2 reaction. The IC50 values reported (Table 1) are the averages of three independent measurements.
On to `COc1cc(-c2cnc3[nH]c(=O)n([C@@H](C)c4ccccc4)c3n2)cc(OC)c1OC` [Compound 1, 1-((S)-(−)-1-Phenylethyl)-6-(3,4,5-trimethoxyphenyl)-1,3-dihydroimidazo[4,5-b]pyrazin-2-one], for which the IC50 is below 0.5 µM.

With `COc1cc(-c2cnc3[nH]c(=O)n([C@H](C)c4ccccc4)c3n2)cc(OC)c1OC` [Compound 2, 1-((R)-(+)-1-Phenylethyl)-6-(3,4,5-trimethoxyphenyl)-1,3-dihydro-imidazo[4,5-b]pyrazin-2-one], the IC50 is above 1 µM.

In the case of `COc1cc(-c2cnc3[nH]c(=O)n(Cc4ccccc4)c3n2)cc(OC)c1OC` [Compound 3, 1-Benzyl-6-(3-4,5-trimethoxyphenyl)-1,3-dihydroimidazo[4,5-b]pyrazin-2-one], the IC50 is below 0.5 µM. For the molecule `C[C@@H](c1ccccc1)n1c(=O)[nH]c2ncc(-c3ccc4[nH]ccc4c3)nc21` [Compound 4, 6-(1H-Indol-5-yl)-1-((S)-(−)-1-phenylethyl)-1,3-dihydroimidazo[4,5-b]pyrazin-2-one], the IC50 is above 1 µM.

Regarding `Cc1noc(C)c1-c1cnc2[nH]c(=O)n([C@@H](C)c3ccccc3)c2n1` [Compound 5, 6-(3,5-Dimethylisoxazol-4-yl)-1-((S)-(−)-1-phenylethyl)-1,3-dihydro-imidazo[4,5-b]pyrazin-2-one], the IC50 is above 1 µM. On to `C[C@@H](c1ccccc1)n1c(=O)[nH]c2ncc(-c3cccc(C#N)c3)nc21` [Compound 6, 3-[2-Oxo-3-((S)-(−)-1-phenylethyl)-2,3-dihydro-1H-imidazo[4,5-b]pyrazin-5-yl]benzonitrile], for which the IC50 is above 1 µM.

As for `C[C@@H](c1ccccc1)n1c(=O)[nH]c2ncc(-c3cccc(CO)c3)nc21` [Compound 7, 6-(3-Hydroxymethylphenyl)-1-((S)-(−)-1-phenylethyl)-1,3-dihydro-imidazo[4,5-b]pyrazin-2-one], the IC50 was in the range of 0.5 to 1 µM. In the case of `C[C@@H](c1ccccc1)n1c(=O)[nH]c2ncc(-c3cc4ccccc4[nH]3)nc21` [Compound 8, 6-(1H-Indol-2-yl)-1-((S)-(−)-1-phenylethyl)-1,3-dihydro-imidazo[4,5-b]pyrazin-2-one] it was above 1 µM; in that of `O=c1[nH]c2ncc(-c3cccnc3)nc2n1Cc1ccccc1` [Compound 9, 1-Benzyl-6-pyridin-3-yl-1,3-dihydroimidazo[4,5-b]pyrazin-2-one], above 1 µM. To `COc1ccc(-c2cnc3[nH]c(=O)n(Cc4ccccc4)c3n2)cc1OC` [Compound 10, 1-Benzyl-6-(3,4-dimethoxyphenyl)-1,3-dihydroimidazo[4,5-b]pyrazin-2-one] belongs 0.5 to 1 µM. To `COc1ccc(-c2cnc3[nH]c(=O)n(Cc4ccccc4)c3n2)cn1` [Compound 11, 1-Benzyl-6-(6-methoxypyridin-3-yl)-1,3-dihydroimidazo[4,5-b]pyrazin-2-one] belongs above 1 µM. In the case of `COCc1cccc(-c2cnc3[nH]c(=O)n(Cc4ccccc4)c3n2)c1` [Compound 12, 1-Benzyl-6-(3-methoxymethylphenyl)-1,3-dihydroimidazo[4,5-b]pyrazin-2-one], the IC50 is above 1 µM.

For `CC(=O)c1cccc(-c2cnc3[nH]c(=O)n(Cc4ccccc4)c3n2)c1` [Compound 13, 6-(3-Acetylphenyl)-1-benzyl-1,3-dihydroimidazo[4,5-b]pyrazin-2-one], the IC50 is above 1 µM.

Regarding `COc1ccc(-c2cnc3[nH]c(=O)n(Cc4ccccc4)c3n2)c(OC)c1` [Compound 14, 1-Benzyl-6-(2,4-dimethoxyphenyl)-1,3-dihydroimidazo[4,5-b]pyrazin-2-one], the IC50 was above 1 µM. In the case of `O=c1[nH]c2ncc(-c3ccsc3)nc2n1Cc1ccccc1` [Compound 15, 1-Benzyl-6-thiophen-3-yl-1,3-dihydroimidazo[4,5-b]pyrazin-2-one] it was above 1 µM; in that of `O=c1[nH]c2ncc(-c3cccs3)nc2n1Cc1ccccc1` [Compound 16, 1-Benzyl-6-thiophen-2-yl-1,3-dihydroimidazo[4,5-b]pyrazin-2-one], above 1 µM. To `COc1cccc(-c2cnc3[nH]c(=O)n(Cc4ccccc4)c3n2)c1` [Compound 17, 1-Benzyl-6-(3-methoxyphenyl)-1,3-dihydroimidazo[4,5-b]pyrazin-2-one] belongs above 1 µM.

As to `O=C(O)c1cccc(-c2cnc3[nH]c(=O)n(Cc4ccccc4)c3n2)c1` [Compound 18, 3-(3-Benzyl-2-oxo-2,3-dihydro-1H-imidazo[4,5-b]pyrazin-5-yl)benzoic acid], the IC50 fell in the range of 0.5 to 1 µM. To `COc1cc(-c2cnc3[nH]c(=O)n(Cc4ccccn4)c3n2)cc(OC)c1OC` [Compound 19, 1-Pyridin-2-ylmethyl-6-(3,4,5-trimethoxyphenyl)-1,3-dihydroimidazo[4,5-b]pyrazin-2-one] belongs 0.5 to 1 µM. As for `COc1cc(-c2cnc3[nH]c(=O)n(Cc4cccnc4)c3n2)cc(OC)c1OC` [Compound 20, 1-Pyridin-3-yl methyl-6-(3,4,5-trimethoxyphenyl)-1,3-dihydroimidazo-[4,5-b]pyrazin-2-one], the IC50 was below 0.5 µM. To `COc1cc(OC)cc(-c2cnc3[nH]c(=O)n(Cc4ccccc4)c3n2)c1` [Compound 21, 1-Benzyl-6-(3,5-dimethoxyphenyl)-1,3-dihydro-imidazo[4,5-b]pyrazin-2-one] belongs above 1 µM; to `COc1ccc(-c2cnc3[nH]c(=O)n(Cc4ccccc4)c3n2)cc1C=O` [Compound 22, 5-(3-Benzyl-2-oxo-2,3-dihydro-1H-imidazo[4,5-b]pyrazin-5-yl)-2-methoxybenzaldehyde], above 1 µM. To `COc1ccc(-c2cnc3[nH]c(=O)n(Cc4ccccc4)c3n2)cc1C(=O)O` [Compound 23, 5-(3-Benzyl-2-oxo-2,3-dihydro-1H-imidazo[4,5-b]pyrazin-5-yl)-2-methoxybenzoic acid] belongs below 0.5 µM; to `COc1ccc(-c2cnc3[nH]c(=O)n(Cc4ccccc4)c3n2)cc1CO` [Compound 24, 1-Benzyl-6-(3-hydroxymethyl-4-methoxyphenyl)-1,3-dihydro-imidazo[4,5-b]pyrazin-2-one], above 1 µM; to `O=C(O)c1cc(-c2cnc3[nH]c(=O)n(Cc4ccccc4)c3n2)ccc1O` [Compound 25, 5-(3-Benzyl-2-oxo-2,3-dihydro-1H-imidazo[4,5-b]pyrazin-5-yl)-2-hydroxybenzoic acid], 0.5 to 1 µM. In the case of `COc1ccc(-c2cnc3[nH]c(=O)n(Cc4ccccc4)c3n2)cc1C(N)=O` [Compound 26, 5-(3-Benzyl-2-oxo-2,3-dihydro-1H-imidazo[4,5-b]pyrazin-5-yl)-2-methoxybenzamide] it was above 1 µM. Turning to `COc1cc(-c2cnc3[nH]c(=O)n(Cc4cccc([N+](=O)[O-])c4)c3n2)cc(OC)c1OC` [Compound 27, 1-(3-Nitrobenzyl)-6-(3,4,5-trimethoxyphenyl)-1,3-dihydroimidazo[4,5-b]pyrazin-2-one], the IC50 is above 1 µM. As to `COc1cc(-c2cnc3[nH]c(=O)n(Cc4ccc(Cl)cc4)c3n2)cc(OC)c1OC` [Compound 28, 1-(4-Chlorobenzyl)-6-(3,4,5-trimethoxyphenyl)-1,3-dihydro-imidazo[4,5-b]pyrazin-2-one], the IC50 fell in the range of 0.5 to 1 µM. For the molecule `COc1cc(-c2cnc3[nH]c(=O)n(Cc4cccc(Cl)c4)c3n2)cc(OC)c1OC` [Compound 29, 1-(3-Chlorobenzyl)-6-(3,4,5-trimethoxyphenyl)-1,3-dihydro-imidazo[4,5-b]pyrazin-2-one], the IC50 is below 0.5 µM.

With `COc1cc(-c2cnc3[nH]c(=O)n(Cc4cccc(C)c4)c3n2)cc(OC)c1OC` [Compound 30, 1-(3-Methylbenzyl)-6-(3,4,5-trimethoxyphenyl)-1,3-dihydro-imidazo[4,5-b]pyrazin-2-one], the IC50 lay in the range of 0.5 to 1 µM. As for `COc1cc(-c2cnc3[nH]c(=O)n(Cc4cccc(F)c4)c3n2)cc(OC)c1OC` [Compound 31, 1-(3-Fluorobenzyl)-6-(3,4,5-trimethoxyphenyl)-10,3-dihydro-imidazo[4,5-b]pyrazin-2-one], the IC50 is below 0.5 µM.

For orientation: IC50 means the point on the concentration scale where inhibition reaches its midpoint.
